{
  "source": "patent US20250367283A1",
  "about": "“MEVALONATE PATHWAY INHIBITOR AS HIGHLY-EFFICIENT VACCINE ADJUVANT” (Tsinghua University, priority 2015, published 2025)",
  "key": {"anti-OVA serum antibody": {"system": "anti-OVA serum antibody", "assay": "OVA immunization with bisphosphonates (Example 15), serum antibody titer", "type": "in vivo, mice", "conditions": "100 μg, intramuscular, 14 days", "procedure": "During the immunization, the antigen we used was ovalbumin (OVA). Mice were c57bl/6 female mice at the age of 8 weeks. OVA was formulated at a concentration of 1 mg/ml and bisphosphonate concentration was 1 mg/ml. OVA and bisphosphonates were mixed at a ratio of 1:1 at the time of immunization. Mice were injected intramuscularly with […]. 100 μg of OVA and 100 μg of bisphosphonate per mouse. 14 days after immunization, 100 μl of orbital blood was taken from each mouse.\nThe whole blood which had been obtained was placed in a 4° C. freezer overnight. The next day, the whole blood at 4° C. was centrifuged at a speed of 6000 rpm at a temperature of 4° C. for 5 minutes. After the centrifugation, the upper serum was carefully taken out and centrifuged again at a speed of 6000 rpm at a temperature of 4° C. for 5 minutes. The upper serum was taken again. Serum was frozen and stored at-20° C. and thawed when tested.\n1. Coating: antigen OVA was diluted to a protein content of 2 μg/ml with 0.05M pH 9.6 carbonate coating buffer. Each reaction well of a polystyrene plate was coated with 50 μl of the solution overnight at 4° C. or 2 h at 37° C. […]\n7. On an ELISA detector, the OD value was read at 490 nm. Titers of serum antibody were calculated. Serum dilutions were calculated as titers of serum antibody based on an OD value greater than or equal to 1.5 times of the reading of the negative control well."}, "Vγ9Vδ2 T cells": {"system": "Vγ9Vδ2 T cells", "assay": "Expansion of Vγ9Vδ2 T cells from PBMCs", "type": "cell-based, human", "conditions": "4 μM bisphosphonate, 200 U/mL rIL-2, day 12", "procedure": "Human peripheral blood mononuclear cells (PBMCs) were prepared from healthy volunteers by Ficoll-Hypaque density gradient centrifugation. […] Cells were harvested on day 12 and stained with FITC-anti-CD3 (Miltenyi Biotec) and PE-anti-[…] (Miltenyi Biotec) monoclonal antibodies. Flow cytometry was used for detection. Prism 5.0 was used to analyze the data."}, "[1]": {"target": "HsGGPPS (humanized geranylgeranyl pyrophosphate synthase) (Homo sapiens (Human), UniProt O95749)", "sequence (O95749 whole entry, looked up)": "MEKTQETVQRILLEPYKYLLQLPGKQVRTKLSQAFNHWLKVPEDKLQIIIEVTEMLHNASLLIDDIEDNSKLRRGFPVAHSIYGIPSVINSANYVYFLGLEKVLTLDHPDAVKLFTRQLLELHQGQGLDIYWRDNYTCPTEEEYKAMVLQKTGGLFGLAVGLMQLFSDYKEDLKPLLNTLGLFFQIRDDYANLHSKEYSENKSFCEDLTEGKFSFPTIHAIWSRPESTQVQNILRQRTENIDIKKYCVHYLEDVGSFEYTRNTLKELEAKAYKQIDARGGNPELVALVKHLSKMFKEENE", "assay": "HsGGPPS enzyme inhibition test", "type": "biochemical", "procedure": "The inhibitory activities of compounds TH-Z144 and TH-Z145 on GGPPS (geranylgeranyl pyrophosphate synthase) were tested by referring to the expression and purification method for HsGGPPS (humanized geranylgeranyl pyrophosphate synthase) in the reference (Szabo, C. M., et al., Inhibition of Geranylgeranyl Diphosphate Synthase by Bisphosphonates and Diphosphates: A Potential Route to New Bone Antiresorption and Antiparasitic Agents. Journal of Medicinal Chemistry, 2002. 45 (11): p. 2185-2196.) and the method for testing enzyme activity in the reference (Zhang, Y., et al., Lipophilic Bisphosphonates as Dual Farnesyl/Geranylgeranyl Diphosphate Synthase Inhibitors: An X-ray and NMR Investigation. Journal of the American Chemical Society, 2009. 131 (14): p. 5153-5162.) The data of the activity test were as follows: […]"}, "[2]": {"system": "anti-OVA IgM and IgG antibodies", "assay": "Combined adjuvant effect of FPPS inhibitor and TLR agonist, OVA titer", "type": "in vivo, mice", "procedure": "Two compounds, TH-Z93 and Imiquimod, were formulated at a concentration of 4 mg/ml, and OVA antigen at a concentration of 10 mg/ml. When used alone, 5 μl of TH-Z93 or imiquimod was added as an adjuvant and mixed with 10 μl of antigen and 5 μl of PBS. When two adjuvants were used in combination, each of the adjuvants were added in an amount of 5 μl and mixed with 10 μl of antigen, and the total volumes were 20 μl. The mice used are of C57B/6 strain. An equal volume of PBS without any adjuvant was used for mice in the control group. The mice was injected at the soles of the right feet. On Day 7 and Day 14 after immunization, blood was taken from the mice's orbits, and 100 μl was taken for each mouse. The obtained blood was left at 4° C. overnight, and then the serum was separated. The titers of anti-OVA IgM and IgG antibodies in the serum were determined."}},
  "note": "pIC50: −log10 of the molar value.",
  "data": [
    {"compound": "CCCCCCCCOc1ccc2c(c1)ncn2CC(O)(P(=O)(O)O)P(=O)(O)O", "note": "[TH-Z81]", "values": [
      {"measurement": "adjuvant effect by carbon chain length of the side chain", "setting": "anti-OVA serum antibody", "value": "strongest effect as an adjuvant"}
    ]},
    {"compound": "CCCCCCOc1ccc2c(c1)ncn2CC(O)(P(=O)(O)O)P(=O)(O)O", "note": "[TH-Z80]", "values": [
      {"measurement": "antibody titers vs conventional bisphosphonates", "setting": "anti-OVA serum antibody", "value": "higher titers of antibodies than conventional bisphosphonates"},
      {"measurement": "amplification effect on Vγ9Vδ2 T cells", "setting": "Vγ9Vδ2 T cells", "value": "best amplification effect on Vγ9Vδ2 T cells"}
    ]},
    {"compound": "(2-(3-(octyloxy)phenyl)ethane-1,1-diyl)bisphosphonic acid [TH-Z145]", "values": [
      {"measurement": "IC50 (inhibition of GGPPS)", "setting": "[1]", "value": "effectively inhibit the activity of GGPPS"},
      {"measurement": "pIC50", "setting": "[1]; read-out: IC50 (inhibition of GGPPS)", "value": 6.18}
    ]},
    {"compound": "CCCCCCOc1ccnc(NC(P(=O)(O)O)P(=O)(O)O)c1", "note": "[TH-Z93, (((4-(hexyloxy)pyridin-2-yl)amino)methylene)bisphosphonic acid]", "values": [
      {"measurement": "antibody titers vs PBS control, adjuvant used alone", "setting": "[2]; soles of right feet", "value": "significant high titers"},
      {"measurement": "antibody titers vs imiquimod alone", "setting": "[2]; used alone", "value": "significantly superior to those of mice treated with imiquimod alone"}
    ]}
  ]
}
